Laboratory results from EP0148096A1, “Diversely substituted 1-arylamino-3-amino-2-propanols, process for their preparation and their therapeutical application” (CORTIAL S.A., priority 1983, dated 1985).
Read-outs that look alike come from different tables or passages of the source.

How the values were obtained:
[1] = test system: oreillette isolée de cobaye stimulée électriquement; test: antiarrhythmic activity in vitro, electrically stimulated isolated guinea pig atrium; type: cell-based; settings: read-out: Ci30
From the text: In vitro dans le modèle de l'oreillette isolée de cobaye stimulée électriquement le COR37 05C et le COR37 06C sont actifs avec des Ci30 de respectivement 6,22 (4,37-8,86) 10^-6 M/1 et 7,26.10^-6 (4,68.10^-6-1,12.10^-5) M/1 contre 10^-5 M/1 pour la procaïne, 4.10^-6 M/1 pour la quinidine et 4,5.10^-6 M/l pour le propranolol.

[2] = test system: souris soumise à une anesthésie chloroformique profonde; test: antiarrhythmic activity, mouse under deep chloroform anaesthesia; type: in vivo; settings: ip, read-out: dose active (activité antiarythmique)
Method: L'activité antiarythmique a été déterminée sur plusieurs modèles expérimentaux. Dans le modèle de la souris soumise à une anesthésie chloroformique profonde le COR37 05C et le COR37 06C présentent après administration intrapéritonéale une activité antiarythmique dès la dose de 25 mg/kg; le COR37 50C est actif sur ce même modèle à 100 mg/kg. Le propranolol est actif dans les mêmes conditions à la dose de 40 mg/kg et la quinidine à la dose de 100 mg/kg.

[3] = acute toxicity, intraperitoneal administration, solution in Tween; type: in vivo; settings: mouse, in vivo, ip, souris, voie intrapéritonéale, solution dans le Tween, read-out: mortalité
[4] = test system: arythmies induites par l'aconitine; test: aconitine-induced arrhythmias in the rat; type: in vivo; settings: for pourcentage d'animaux ne présentant pas de fibrilloflutters: voie orale
Method: Ces produits ont été testés dans le modèle des arythmies induites par l'aconitine chez le rat. Les résultats sont exprimés par le pourcentage d'augmentation de la quantité d'aconitine provoquant l'apparition d'extrasystoles (E), de fibrilloflutters (F), de tachycardies (T) et de morts (M). Administrés par voie intraveineuse 1 mn avant la perfusion d'aconitine, le COR37 05C entraine à 10 mg/kg 78 % (E), 87 % (T) et 83 % (M) d'activité et le COR37 06C à 5 mg/kg entraine 45 % (E), 39 % (T) et 79 % (M) d'activité. Administrés par voie orale 45 mn avant la perfusion d'aconitine à 100 mg/kg, le COR37 05C entraine 83 % (E), 99 % (T), 43 % (F) et 107 % (M) d'activité et le COR37 06C 25 % (E), 32 % (T), 29 % (F) et 105 % (M) d'activité. De plus le pourcentage d'animaux ne présentant pas de fibrilloflutters après administration de 100 mg/kg de COR37 05C et COR37 )6C par voie orale est respectivement de 70 et 60 %.

[5] = test system: plasma riche en plaquettes (PRP) de lapin; test: platelet aggregation in vitro induced by bovine collagen in rabbit PRP; type: cell-based; settings: 1 microg/ml, 0,05 ml de collagène bovin, read-out: inhibition de l'agrégation plaquettaire
Method: (§1) L'activité antiagrégante plaquettaire a été déterminée in vitro. Quand l'agrégation est induite par 0,05 ml d'une préparation standardisée de collagène bovin dans un plasma riche en plaquettes (PRP) de lapin, le COR37 06C entraine 100 % d'inhibition à 1 microg/ml alors que l'aspirine dans les mêmes conditions est active à 10 microg/ml et l'indométacine à 0,5 microg/ml. Dans le modèle de l'agrégation plaquettaire induite par […] d'ADP dans un PRP de lapin, à 100 microg/ml, le COR37 09C entraine 79 % d'activité, le COR37 50C entraine 80 % d'activité et l'adénosine 64 %.

cornée de cobaye = test: local anaesthetic activity, guinea pig cornea with tactile stimulus; type: in vivo; settings: concentration de 0,5 %
From the text: L'activité anesthésique locale a été déterminée dans le test de la cornée de cobaye soumise à un stimulus tactile. Le COR37 06C employé à la concentration de 0,5 % est actif pendant 30 mn.

[6] = acute toxicity, oral administration, solution in Tween; settings: mouse, in vivo, souris, voie orale; for mortality: solution dans le Tween, read-out: mortalité
Method: (§2) La toxicité a été déterminée chez la souris. En solution dans le Tween et après administration par voie orale le COR37 05C entraine 0 % de mortalité à 500 mg/kg, 40 % à 750 et 40 % à 1000; le COR37 06C entraine 0 % de mortalité à 100 mg/kg, 10 % à 200, 10 % à 250, 90 % à 375, 100 % à 500 (DL50 = 294 mg/kg (261-332); les COR37 09C, COR37 49C et COR37 50C entrainent 0 % de mortalité à 300 mg/kg. En solution dans le Tween et après administration par voie intrapéritonéale le COR37 05C entraine 0 % de

PRP de lapin = test: platelet aggregation in vitro induced by ADP in rabbit PRP; type: cell-based; settings: Oryctolagus cuniculus, 100 microg/ml, d'ADP, read-out: activité (agrégation plaquettaire induite par ADP)
Method: as §1

souris = test: acute toxicity, intraperitoneal administration, solution in Tween; type: in vivo; settings: voie intrapéritonéale, 200 mg/kg, solution dans le Tween
[7] = test system: oreillette gauche de cobaye; test: calcium-antagonist activity in vitro, electrically stimulated guinea pig left atrium in low-calcium Tyrode; type: cell-based; settings: 100 Microg/ml; 150 battements/mn, Tyrode pauvre en calcium (0,6mM), addition de 0,6 mM de calcium
Method: L'activité anticalcique a été déterminée in vitro sur oreillette gauche de cobaye stimulée électriquement à 150 battements/mn dans une solution de Tyrode pauvre en calcium (0,6mM).

[8] = acute toxicity, intravenous administration; settings: mouse, in vivo, souris, voie intraveineuse, limits (53,8 - 59,5), read-out: DL50 (the source's name)
Method: as §2
Par voie intraveineuse le COR37 05C présente une DL50 de 56,6 mg/kg (53,8 - 59,5).

Hl = target: T1, Hl (Cavia porcellus, UniProt P31389); test: anti-H1 antihistaminic activity in vitro, guinea pig ileum; type: cell-based; settings: 25 microg/ml; iléon de cobaye; read-out: inhibition des contractions induites par l'histamine
T1 construct: in vitro sur iléon de cobaye; from tissue; host or cells: guinea pig ileum
T1 sequence (P31389 whole entry): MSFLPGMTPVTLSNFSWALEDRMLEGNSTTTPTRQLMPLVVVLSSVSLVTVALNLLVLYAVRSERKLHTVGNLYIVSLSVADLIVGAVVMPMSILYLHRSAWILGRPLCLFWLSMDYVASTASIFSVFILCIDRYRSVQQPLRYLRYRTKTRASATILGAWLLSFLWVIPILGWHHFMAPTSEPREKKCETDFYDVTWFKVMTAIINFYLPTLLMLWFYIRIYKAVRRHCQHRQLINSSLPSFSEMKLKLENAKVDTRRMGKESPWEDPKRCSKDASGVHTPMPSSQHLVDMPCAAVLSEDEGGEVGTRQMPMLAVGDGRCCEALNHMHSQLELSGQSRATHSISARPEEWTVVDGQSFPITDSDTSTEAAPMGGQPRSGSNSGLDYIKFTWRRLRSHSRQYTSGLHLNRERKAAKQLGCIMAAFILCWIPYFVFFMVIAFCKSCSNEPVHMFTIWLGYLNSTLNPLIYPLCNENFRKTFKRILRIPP
From the text: L'activité antihistaminique antiHl a été mise en évidence in vitro sur iléon de cobaye. Le COR37 49C employé à la concentration de 25 microg/ml inhibe à 80 % les contractions induites par l'histamine.

H2 = target: T2, H2 (Cavia porcellus, UniProt P47747); test: anti-H2 antihistaminic activity in vitro, unstimulated guinea pig right atrium; type: cell-based; settings: 25 microg/ml; 5 microg/ml d'histamine, oreillette droite de cobaye non stimulée; read-out: inhibition de l'effet chronotrope induit par l'histamine
T2 construct: sur l'oreillette droite de cobaye non stimulée; from tissue; host or cells: guinea pig right atrium, unstimulated
T2 sequence (P47747 whole entry): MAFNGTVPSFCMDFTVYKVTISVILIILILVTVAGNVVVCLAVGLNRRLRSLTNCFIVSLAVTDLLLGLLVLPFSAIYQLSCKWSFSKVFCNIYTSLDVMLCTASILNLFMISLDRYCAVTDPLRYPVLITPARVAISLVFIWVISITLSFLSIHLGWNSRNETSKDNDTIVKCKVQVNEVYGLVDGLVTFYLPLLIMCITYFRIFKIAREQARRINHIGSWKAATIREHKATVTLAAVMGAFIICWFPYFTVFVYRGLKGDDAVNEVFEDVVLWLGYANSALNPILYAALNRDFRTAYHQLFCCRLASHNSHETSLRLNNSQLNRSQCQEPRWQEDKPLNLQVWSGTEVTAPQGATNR
From the text: L'activité antihistaminique antiH2 a été mise en évidence in vitro. A la concentration de 25 microg/ml le COR37 49C inhibe à 50 % l'effet chronotrope induit par 5 microg/ml d'histamine sur l'oreillette droite de cobaye non stimulée.

[9] = test system: souris rendue hypercholestérolémique; test: hypolipidaemic activity, hypercholesterolaemic mouse (cholesterol and cholic acid diet, 7 days); type: in vivo; settings: voie orale le 6e et le 7e jour, 400 mg/kg
Method: L'activité hypolipidémiante a été mise en évidence chez la souris rendue hypercholestérolémique par un régime riche en cholestérol et acide cholique pendant 7 jours. Ainsi l'administration par voie orale du COR37 49C le 6e et le 7e jour, entraine une diminution du cholestérol sérique de 22 % à la dose de 400 mg/kg.

[10] = test system: rat en surcharge hydrique; test: diuretic activity, water-loaded rat; type: in vivo; settings: dose orale de 20 mg/kg, fold factor
Method: L'activité diurétique a été déterminée chez le rat. Ainsi le COR37 49C administré au rat en surcharge hydrique à la dose orale de 20 mg/kg multiplie par 2,2 l'excrétion urinaire de sodium.

[11] = oreillette isolée de cobaye stimulée électriquement, in vitro
[12] = voie intraveineuse 1 mn avant la perfusion d'aconitine, 5 mg/kg
[13] = voie orale 45 mn avant la perfusion d'aconitine, 100 mg/kg
[14] = souris, anesthésie chloroformique profonde, administration intrapéritonéale
[15] = voie intraveineuse 1 mn avant la perfusion d'aconitine, 10 mg/kg

C=C[C@H]1C[N@@]2CC[C@H]1C[C@@H]2[C@@H](O)c1ccnc2ccc(OC)cc12 [quinidine, reference compound]
IC30 [1]: 4 µM | minimal effective dose [2]: 100 mg/kg

CC(C)NCC(O)COc1cccc2ccccc12 (stereo not drawn) [propranolol, reference compound]
IC30 [1]: 4.5 µM | minimal effective dose [2]: 40 mg/kg

CCN(CC)CCOC(=O)c1ccc(N)cc1 [procaïne]
IC30 [1, 11]: 10 µM

Cc1cccc(C(C)C)c1NCC(O)CNC(C)(C)C (stereo not drawn) [COR37 06C, Dichlorhydrate de l'(isopropyl-2 méthyl-6 anilino)-1 tertiobutylamino-3 propanol-2]
IC30 [1, 11]: 7.26 µM | mortality ([3]; 100 mg/kg): 0% | mortality ([3]; 200 mg/kg): 100% | pourcentage d'augmentation de la quantité d'aconitine provoquant l'apparition d'extrasystoles (E) [4, 12]: 45% | pourcentage d'augmentation de la quantité d'aconitine provoquant l'apparition de morts (M) [4, 12]: 79% | pourcentage d'augmentation de la quantité d'aconitine provoquant l'apparition de tachycardies (T) [4, 12]: 39% | pourcentage d'augmentation de la quantité d'aconitine provoquant l'apparition d'extrasystoles (E) [4, 13]: 25% | pourcentage d'augmentation de la quantité d'aconitine provoquant l'apparition de fibrilloflutters (F) [4, 13]: 29% | pourcentage d'augmentation de la quantité d'aconitine provoquant l'apparition de morts (M) [4, 13]: 105% | pourcentage d'augmentation de la quantité d'aconitine provoquant l'apparition de tachycardies (T) [4, 13]: 32% | pourcentage d'animaux ne présentant pas de fibrilloflutters ([4]; 100 mg/kg): 60% | inhibition at 1 µg/mL [5]: 100% | durée d'activité anesthésique locale (cornée de cobaye): 30 mn | mortality ([6]; 100 mg/kg): 0% | mortality ([6]; 200 mg/kg): 10% | mortality ([6]; 250 mg/kg): 10% | mortality ([6]; 375 mg/kg): 90% | mortality ([6]; 500 mg/kg): 100% | LD50 ([6]; limits (261-332), read-out: DL50 (the source's name)): 294 mg/kg | minimal effective dose [2, 14]: 25 mg/kg

Nc1ncnc2c1ncn2[C@@H]1O[C@H](CO)[C@@H](O)[C@H]1O [adénosine, reference compound]
inhibition at 100 µg/mL (PRP de lapin): 64%

Cc1ccc(NCC(O)CNC(C)(C)C)cc1 (stereo not drawn) [COR37 09C, Dichlorhydrate du (méthyl-4 anilino)-1 tertiobutylamino-3 propanol-2]
mortality ([3]; 50 mg/kg): 0% | mortality ([3]; 100 mg/kg): 100% | inhibition at 100 µg/mL (PRP de lapin): 79% | mortality ([6]; 300 mg/kg): 0%

Cc1cccc(C(C)C)c1NCC(O)CN(C)C (stereo not drawn) [COR37 50C, Dichlorhydrate de l' (isopropyl-2 méthyl-6 anilino)-1 diméthylamino-3 propanol-2]
mortalité (souris): aucune mortalité | inhibition at 100 µg/mL (PRP de lapin): 80% | activité anticalcique [7]: inhibent l'augmentation de la force contractile | mortality ([6]; 300 mg/kg): 0% | minimal effective dose [2, 14]: 100 mg/kg

CC(C)c1ccccc1NCC(O)CNC(C)(C)C (stereo not drawn) [COR37 05C, Dichlorhydrate de l'(isopropyl-2 anilino)-1 tertiobutylamino-3 propanol-2]
LD50 [8]: 56.6 mg/kg | IC30 [1, 11]: 6.22 µM | mortality ([3]; 200 mg/kg): 0% | pourcentage d'augmentation de la quantité d'aconitine provoquant l'apparition d'extrasystoles (E) [4, 15]: 78% | pourcentage d'augmentation de la quantité d'aconitine provoquant l'apparition de morts (M) [4, 15]: 83% | pourcentage d'augmentation de la quantité d'aconitine provoquant l'apparition de tachycardies (T) [4, 15]: 87% | pourcentage d'augmentation de la quantité d'aconitine provoquant l'apparition d'extrasystoles (E) [4, 13]: 83% | pourcentage d'augmentation de la quantité d'aconitine provoquant l'apparition de fibrilloflutters (F) [4, 13]: 43% | pourcentage d'augmentation de la quantité d'aconitine provoquant l'apparition de morts (M) [4, 13]: 107% | pourcentage d'augmentation de la quantité d'aconitine provoquant l'apparition de tachycardies (T) [4, 13]: 99% | pourcentage d'animaux ne présentant pas de fibrilloflutters ([4]; 100 mg/kg): 70% | mortality ([6]; 500 mg/kg): 0% | mortality ([6]; 750 mg/kg): 40% | mortality ([6]; 1000 mg/kg): 40% | minimal effective dose [2, 14]: 25 mg/kg

CC(C)c1ccccc1NCC(O)CN(C)C (stereo not drawn) [COR37 49C, Dichlorhydrate de l'(isopropyl-2 anilino)-l diméthylamino-3 propanol-2]
inhibition at 25 µg/mL (Hl): 80% | mortalité (souris): aucune mortalité | activité anticalcique [7]: inhibent l'augmentation de la force contractile | inhibition at 25 µg/mL (H2): 50% | diminution du cholestérol sérique [9]: 22% | mortality ([6]; 300 mg/kg): 0% | multiplication de l'excrétion urinaire de sodium [10]: 2,2
